Literature values as cited in patent publication US12594238B2, “Low hygroscopicity active powder compositions” (PHILIP MORRIS PRODUCTS S.A., priority 2020, dated 2026).

Settings: at 25° C.

solubility: 69 g/100 ml water
Compound: OC[C@H]1O[C@H](O[C@H]2O[C@H](CO)[C@@H](O)[C@H](O)[C@H]2O)[C@H](O)[C@@H](O)[C@@H]1O [trehalose]
